The test has as its target T1, Keap1 (321-609) Kelch domain / TAMRA-labeled NRF2 peptide (ETGE motif) (Homo sapiens, UniProt Q14145).
T1 construct: the Kelch domain (321-609) of Keap1 is used
The test can be described thus: NRF2-Keap1 FP Assay. The format is binding. Particulars: Keap1 (321-609) 20 nM, Tamra labeled peptide 8 nM. An excerpt: One model for the NRF2-Keap1 interaction is through two binding sites in the Neh2 domain on NRF2. The two sites are referred to as the DLG binding motif (latch domain, uM affinity) and the ETGE binding motif (hinge domain, nM affinity). The Keap1 protein consists of an N-terminal region (NTR), a broad complex, tramtrack, and brick a' brac domain (BTB), an intervening region (IVR), a double glycine repeat domain (DGR or Kelch), and a C-terminal region. The DLG and ETGE motifs of NRF2's Neh2 domain bind to the Kelch domain of Keap1 at different affinities. In the Keap1 Kelch fluorescence polarization (FP) assay, a TAMRA-labeled 16mer peptide (AFFAQLQLDEETGEFL) containing the ETGE motif of NRF2 and the Kelch domain (321-609) of Keap1 is used. The assay determines if a compound interferes with the binding between Keap1 […] and the TAMRA-labeled peptide. Binding of TAMRA-labeled NRF2 peptide to Keap1 (321-609) results in a high FP signal. If a compound interferes with the binding between the peptide and the protein, it will cause the assay signal to decrease. Thus, assay signal is inversely proportional to binding inhibition.
100 nl of 100× compound dose response curves (serial 3-fold dilutions) in DMSO were stamped using an Echo liquid handling system (Labcyte) into 384-well low volume black assay plates (Greiner, #784076), with DMSO in columns 6 and 18. The top concentration of compound was located in columns 1 and 13. Keap1 (321-609) was diluted to 40 nM (2×) in 1× assay buffer (50 mM Tris, pH 8.0, 100 mM NaCl, 5 mM MgCl2, 1 mM DTT, 2 mM CHAPS, and 0.005% BSA) and 5 ul was added using a Multidrop Combi (Thermo Electron Corporation) equipped with a metal tip dispenser to all wells of the compound plate, except column 18. Column 18 received only 5 ul of assay buffer. Immediately, 5 uL of 16 nM (2×) of Tamra labeled peptide (AFFAQLQLDEETGEFL, 21st Century Biochemicals) was added to all wells of the plate. The plates were spun at 500 rpm for 1 min, incubated for 1 hr at room temperature, and read on an Analyst GT (Molecular Devices) equipped with excitation (530/25 nm) and emission (580/10 nm) filters designed for Tamra probes. A 561 nm dichroic mirror was also used in the Analyst. The final assay concentrations of Keap1l (321-609) and Tamra labeled peptide were 20 nM and 8 nM, respectively. Fluorescence measurements, represented as mP, were used in the transformation of the data. Compound activity was calculated based on percent inhibition, normalized against controls in the assay (Control 1 contains the Tamra peptide and Keap1 (321-609) together (0% response) and control 2 contains the Tamra peptide alone (100% response)). Data analysis was handled using the software package Abase XE (Surrey, United Kingdom. The % inhibition values were calculated by the equation:
100−(100*((compound response−average control 2)/(average control 1−average control2))).
For calculation of pIC50s, Abase XE used a four parameter equation.
IC50s<1 nM (+++++), IC50s 1 nM-10 nM (++++), IC50s 10-100 nM (+++), IC50s 100 nM-1 μM (++), IC50s 1-10 μM (+), IC50s>10 μM (−), or were not determined (ND).
T1 sequence (Q14145 321-609): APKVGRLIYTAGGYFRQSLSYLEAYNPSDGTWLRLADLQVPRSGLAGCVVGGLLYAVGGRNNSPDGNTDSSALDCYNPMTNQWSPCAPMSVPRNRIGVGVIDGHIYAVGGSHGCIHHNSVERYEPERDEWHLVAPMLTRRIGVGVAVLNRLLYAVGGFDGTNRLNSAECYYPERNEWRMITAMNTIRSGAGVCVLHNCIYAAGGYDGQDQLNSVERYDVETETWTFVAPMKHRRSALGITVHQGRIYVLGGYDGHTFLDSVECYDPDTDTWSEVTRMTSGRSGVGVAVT
For `CCCC[C@H]1Cc2ccc(C(F)(F)F)cc2S(=O)(=O)N(Cc2cccc(-n3ncc(C(=O)O)c3[C@@H]3C[C@H]3c3cn(C)nn3)c2)C1` [Example 21, 1-(3-(((S)-4-butyl-1,1-dioxido-8-(trifluoromethyl)-4,5-dihydrobenzo[f][1,2]thiazepin-2(3H)-yl)methyl)phenyl)-5-((1R,2R)-2-(1-methyl-1H-1,2,3-triazol-4-yl)cyclopropyl)-1H-pyrazole-4-carboxylic acid], the EC50 is under 1 nM.
Regarding `CC[C@H]1Cc2ccc(Br)cc2S(=O)(=O)N(Cc2cccc(-n3ncc(C(=O)O)c3[C@@H]3C[C@H]3c3cn(C)nn3)c2)C1` [Example 22, 1-(3-(((S)-8-bromo-4-ethyl-1,1-dioxido-4,5-dihydrobenzo[f][1,2]thiazepin-2(3H)-yl)methyl)phenyl)-5-((1R,2R)-2-(1-methyl-1H-1,2,3-triazol-4-yl)cyclopropyl)-1H-pyrazole-4-carboxylic acid], the EC50 is under 1 nM.
The same measure for `CC[C@@H]1CN(Cc2cc(-n3ncc(C(=O)O)c3C3C[C@H]3c3cn(C)nn3)ccc2C)S(=O)(=O)c2ccccc2O1` (some centres unmarked) [Example 25]: 1 to 10 nM; for `C[C@H]1Cc2ccc(C(F)(F)F)cc2S(=O)(=O)N([C@H]2CCc3c2cccc3-n2ncc(C(=O)O)c2[C@@H]2C[C@H]2c2cn(C)nn2)C1` [Example 26a, 1-((S)-1-((S)-4-Methyl-1,1-dioxido-8-(trifluoromethyl)-4,5-dihydrobenzo[f][1,2]thiazepin-2(3H)-yl)-2,3-dihydro-1H-inden-4-yl)-5-((1R,2R)-2-(1-methyl-1H-1,2,3-triazol-4-yl)cyclopropyl)-1H-pyrazole-4-carboxylic acid]: 10 to 100 nM; for `COc1ccccc1S(=O)(=O)N(C)C1CCc2ccc(-n3ncc(C(=O)O)c3[C@@H]3C[C@H]3c3cn(C)nn3)cc21` (stereo partly drawn) [Example 27, 1-(3-(2-methoxy-N-methylphenylsulfonamido)-2,3-dihydro-1H-inden-5-yl)-5-((1R,2R)-2-(1-methyl-1H-1,2,3-triazol-4-yl)cyclopropyl)-1H-pyrazole-4-carboxylic acid]: 1000 to 10000 nM.
`CC[C@@H]1CN(Cc2cc(-n3ncc(C(=O)O)c3[C@@H]3C[C@H]3c3cn(C)nn3)ccc2C)Cc2ccccc2O1` [Example 28] returned an EC50 of 100 to 1000 nM.
Then `CC[C@@H]1CN(Cc2cccc(-n3ncc(C(=O)O)c3[C@@H]3C[C@H]3c3cn(CC(F)(F)F)nn3)c2)S(=O)(=O)c2ccccc2O1` [Example 29], with 1 to 10 nM; and `C[C@H]1Cc2cc(C(F)(F)F)ccc2S(=O)(=O)N(Cc2cccc(-n3ncc(C(=O)O)c3[C@@H]3C[C@H]3c3cnn(C)c3)c2)C1` [Example 30, 1-(3-(((S)-4-Methyl-1,1-dioxido-7-(trifluoromethyl)-4,5-dihydrobenzo[f][1,2]thiazepin-2(3H)-yl)methyl)phenyl)-5-(trans-2-(1-methyl-1H-pyrazol-4-yl)cyclopropyl)-1H-pyrazole-4-carboxylic acid], with 10 to 100 nM; and `CC[C@@H]1CN(Cc2cccc(-n3ncc(C(=O)O)c3[C@@H]3C[C@H]3c3cnn(C)c3)c2)S(=O)(=O)c2ccccc2O1` [Example 31, 1-(3-(((R)-4-ethyl-1,1-dioxido-3,4-dihydro-2H-benzo[b][1,4,5]oxathiazepin-2-yl)methyl)-phenyl)-5-(trans-2-(1-methyl-1H-pyrazol-4-yl)cyclopropyl)-1H-pyrazole-4-carboxylic acid], with 100 to 1000 nM.
The same measure for `C[C@H]1Cc2ccccc2S(=O)(=O)N(Cc2cccc(-n3ncc(C(=O)O)c3[C@@H]3C[C@H]3c3cnn(C)c3)c2)C1` [Example 32, 1-(3-(((S)-4-methyl-1,1-dioxido-4,5-dihydrobenzo[f][1,2]thiazepin-2(3H)-yl)methyl)-phenyl)-5-(trans-2-(1-methyl-1H-pyrazol-4-yl)cyclopropyl)-1H-pyrazole-4-carboxylic acid]: 100 to 1000 nM; for `C[C@@H]1Cc2cc(C(F)(F)F)ccc2S(=O)(=O)N(Cc2cccc(-n3ncc(C(=O)O)c3[C@@H]3C[C@H]3c3cnn(C)c3)c2)C1` [Example 33, 1-(3-(((R)-4-methyl-1,1-dioxido-7-(trifluoromethyl)-4,5-dihydro-benzo[f][1,2]thiazepin-2(3H)-yl)methyl)phenyl)-5-(trans-2-(1-methyl-1H-pyrazol-4-yl)cyclopropyl)-1H-pyrazole-4-carboxylic acid]: 1000 to 10000 nM.

A word on the EC50: it is the midpoint of the concentration-response curve. Lower therefore signals a more potent agent.

For the origin of these results see patent US20200071310A1, “N-ARYL PYRAZOLES AS NRF2 REGULATORS” (GLAXOSMITHKLINE INTELLECTUAL PROPERTY DEVELOPMENT LIMITED, priority 2016, published 2020).
